Data taken from patent US20220023306A1, “USE OF A PPAR-DELTA AGONIST IN THE TREATMENT OF FATTY ACID OXIDATION DISORDERS (FAOD)” (Reneo Pharmaceuticals, Inc., priority 2019, published 2022).

Experiments:
[1] = system: PPARδ regulated genes (CPT1b, PGC1α); assay: expression of PPARδ regulated genes in vivo
hPPARδ = target: T1, hPPARδ (Homo sapiens, UniProt Q03181); assay: PPAR transient transactivation assay, hPPARδ; format: cell-based
T1 construct: is generated by PCR (PPARδ: aa 128-C-terminus); expressed in transfected cells; host or cells: HEK293
T1 sequence (Q03181 128-441 limits assumed): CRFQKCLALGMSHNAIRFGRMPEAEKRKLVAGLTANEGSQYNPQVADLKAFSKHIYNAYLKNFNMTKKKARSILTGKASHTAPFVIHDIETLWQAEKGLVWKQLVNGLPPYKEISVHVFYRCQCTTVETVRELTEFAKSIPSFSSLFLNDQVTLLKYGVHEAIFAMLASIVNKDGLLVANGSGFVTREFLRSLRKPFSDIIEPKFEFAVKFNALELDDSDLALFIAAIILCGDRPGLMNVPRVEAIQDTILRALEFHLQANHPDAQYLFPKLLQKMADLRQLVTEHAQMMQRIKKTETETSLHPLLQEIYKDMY
Protocol: “Activation” herein is defined as the abovementioned downstream response, which in the case of PPAR's is gene transcription. Gene transcription, in some cases, is measured indirectly as downstream production of proteins reflective of the activation of the particular PPAR subtype under study. Alternatively, an artificial reporter construct, in some cases, is employed to study the activation of the individual PPAR's expressed in cells. The ligand binding domain of the particular receptor to be studied, in some embodiments, is fused to the DNA binding domain of a transcription factor, which produces convenient laboratory readouts, such as the yeast GAL4 transcription factor DNA binding domain. The fusion protein, in some cases, is transfected into a laboratory cell line along with a Gal4 enhancer, which effects the expression of the luciferase protein. When such a system is transfected into a laboratory cell line, binding of a receptor agonist to the fusion protein will result in light emission.
The PPAR transient transactivation assay, in some cases, is based on transient transfection into human HEK293 cells of two plasmids encoding a chimeric test protein and a reporter protein respectively. The chimeric test protein, in some cases, is a fusion of the DNA binding domain (DBD) from the yeast GAL4 transcription factor to the ligand binding domain (LBD) of the human PPAR proteins. The PPAR-LBD moiety harbored in addition to the ligand binding pocket also has the native activation domain, allowing the fusion protein to function as a PPAR ligand dependent transcription factor. The GAL4 DBD will direct the chimeric protein to bind only to Gal4 enhancers (of which none existed in HEK293 cells). The reporter plasmid contained a Gal4 enhancer driving the expression of the firefly luciferase protein. After transfection, HEK293 cells expressed the GAL4-DBD-PPAR-LBD fusion protein. […] The amount of luciferase protein is measured by light emission after addition of the appropriate substrate. […]

[2] = system: very long-chain acyl-CoA dehydrogenase (VLCAD); assay: VLCAD enzymatic activity in cultured fibroblasts from symptomatic VLCAD-deficient FAOD patients (ETF fluorescence reduction ACAD activity assay); format: cell-based, human; details: cultured fibroblasts from symptomatic patients with VLCAD deficiency
Protocol: Subjects. Skin biopsies for fibroblast culture are performed on a clinical basis with written informed consent from subjects and/or legal guardians. Fibroblast cells with mutations in any one of the genes and/or proteins associated with a fatty acid oxidation disorder (FAOD) ae obtained from patients' skin biopsies, while wild type (WT) fibroblast cells are obtained from healthy individuals.
Fibroblast cells, in some cases, are obtained from subjects with a confirmed diagnosis of a fatty acid oxidation disorder (FAOD) (e.g. MCAD, VLCAD, CPT1, CACT, CPT2, LCHAD, and/or mitochondrial TFP deficiencies or mutations) or they, in some cases, are purchased is available from commercial sources, e.g. from the Coriell Institute for Medical Research (403 Haddon Avenue, Camden, N.J. 08103).
Cell culture and treatments. Cells are grown in Dulbecco's Modified Eagle Medium (DMEM), Corning Life Sciences, Manassas, Va., containing high glucose levels or in DMEM devoid of glucose for 48-72 hr. Both media are supplemented with fetal bovine serum, glutamine, penicillin and/or streptomycin. In some experiments, fibroblasts are incubated with N-acetylcysteine, resveratrol, mitoQ, Trolox (a hydro-soluble analogue of vitamin E), or bezafibrate, prior to the analysis of parameters.
A PPARδ agonist compound is dissolved in phosphate buffer saline, PBS, as a stock solution. […]

## Cc1cc(OC/C=C(/c2ccc(F)cc2)c2ccc(C#CCN3CCOCC3)cc2)ccc1OCC(=O)O [Compound 1, (E)-[4-[3-(4-Fluorophenyl)-3-[4-[3-(morpholin-4-yl)propynyl]phenyl]allyloxy]-2-methyl-phenoxy]acetic acid]
[1]
  expression pattern of CPT1b (fatty acid metabolism): altered the expression patterns
  expression pattern of PGC1α (mitochondrial biogenesis): altered the expression patterns
hPPARδ
  type of agonism on PPARδ: full agonist
hPPARδ; PPARδ over PPARα, human PPAR subtypes in vitro
  selectivity for PPARδ over PPARα: at least 100 fold
hPPARδ; PPARδ over PPARγ, human PPAR subtypes in vitro
  selectivity for PPARδ over PPARγ: at least 400 fold
[2]
  VLCAD enzymatic activity: increased
